From patent US20210115397A1, “METHOD FOR PROMOTING DIFFERENTIATION OF PLURIPOTENT STEM CELLS” (TOKYO INSTITUTE OF TECHNOLOGY, priority 2018, published 2021)

Tested on: RPChiPS771 hiPSCs
Test: Differentiation of RPChiPS771 into definitive endoderm with or without CHIR99021, SOX17+ cells
Assay type: cell-based, human
Settings: protocol B (CHIR99021 added) versus protocol A (without CHIR99021)
Description: Medium 1 (M1): Initiation of differentiation was done by replacing the culture with Medium 1, including DMEM with 4, 500 mg/L glucose supplemented with 3 μM CHIR99021 (Stemgent), 100 ng/mL recombinant human activin-A (Cell Guidance Systems Ltd), and 2% B27 insulin (+) supplement (Life Technologies). On days 1 and 2, the media were replaced with medium 1 without CHIR99021. Cells were fixed in 4% paraformaldehyde (NACALAI TESQUE, INC.) in PBS, permeabilized with 0.1% Triton X-100 (NACALAI TESQUE, INC.), and were then blocked with 20% Blocking One (NACALAI TESQUE, INC., Japan) in PBST (0.1% Tween-20 in PBS). Antibodies were diluted in 20% Blocking One (NACALAI TESQUE, INC., Japan) in PBST (0.1% Tween-20 in PBS). Cells were counterstained with […] (DAPI) (Roche Diagnostics K.K., Switzerland). The following primary antibodies were used: mouse anti-Oct3/4 (Santa Cruz Biotechnology, Inc.), goat anti-Sox17 (R&D Systems, Inc.), goat anti-PDX1 (R&D Systems, Inc.), guinea pig anti-insulin (Dako), rabbit anti-C-peptide (Cell Signaling Technology, Inc.), and mouse anti-Nkx6.1 (Developmental Studies Hybridoma Bank). […] Positive cells versus total cells (DAPI-positive cells) were quantified using ImageXpress Micro cellular imaging system (Molecular Devices, LLC.).

## Cc1c[nH]c(-c2cnc(NCCNc3ccc(C#N)cn3)nc2-c2ccc(Cl)cc2Cl)n1 [CHIR99021, 6-[[2-[[4-(2,4-dichlorophenyl)-5-(4-methyl-1H-imidazole-2-yl)-2-pyrimidinyl]amino]ethyl]amino]nicotinonitrile]
  proportion of SOX17+ cells: a higher proportion of SOX17+ cells overall
